Measured values published in patent US10501460B2, “Heterocyclic compounds and uses thereof” (Plexxikon Inc., priority 2013, dated 2019).

Key:
MV-4-11 = experiment: Oncology cell growth assay MV-4-11 (CellTiter Glo, 72 hours); format: cell-based; settings: Homo sapiens, MV4-11, 72 h; MV-4-11 cell growth inhibitory activity, 3d
Text: (§1) Published bromodomain inhibitors JQ1 and iBET 151 have shown activity in variety of cancer cells such leukemia and lymphoma, multiple myeloma cells, NUT midline carcinoma and glioblastoma cells (Dawson M A et al. 2011; Delmore J E 2011; Chen Z et al. 2013; Filippakopoulos P et al. 2010; Mertz J A et al. 2011; Ott C J et al. 2012). In this study, we test compounds in different cancer cell lines. MV-4-11 and MOLM-13 are AML cell lines harboring a MLL-AF4 and MLL-AF9 translocation, respectively. MM.1S is a multiple myeloma cell line. SK-N-AS, IMR-32 and SK-N-BE(2) are neuroblastoma cell lines. IMR-32 and SK-N-BE(2) cell lines harbor MYCN amplifications. MV-4-11, MM.1S, IMR-32, SK-N-AS and SK-N-BE(2) were obtained from ATCC (IL, USA) and MOLM-13 were purchased from DSMZ (Braunschweig, German). Cells are cultured as recommended by their sources. For growth inhibition studies 3000 cells are seeded in wells of a 96-well plate in 75 μL of culture media. After several hours, growth media containing compounds of formula (I) are added to the wells. Compound at a maximal concentration of 5 mM was serially diluted 1:3 for a total of 8 point titration with DMSO as a control. A 1 μL aliquot of each dilution point is added to 249 μL growth media and 75 μL is added to each well containing cells, providing 10 μM compound at the maximum concentration point. The final concentration of DMSO in all wells is 0.2%. Cells are incubated for 72 hours, and 25 μL of CellTiter Glo Reagent (Promega Ga., USA) is added to each well. Plates are shaken for approximately 10 minutes and chemiluminescent signal is read on Tecan microplate reader. The measured luminescence correlates directly with cell number.
(§2) All data is normalized to the mean of eight DMSO high control wells on each plate. A four parameter curve fit of the following formula was then applied: Y=a+(b−a)/(1+(x/c)^d) Where ‘a’ is the minimum, ‘b’ is the maximum, ‘c’ is the pIC50 and ‘d’ is the Hill slope. […] Myc Reporter Assay
The following table provides data indicating the BRD4 biochemical inhibitory activity and MV-4-11 cell growth inhibitory activity for exemplary compounds as described herein.

bromodomain = experiment: Bromodomain cell assays of Example 40 (at least one of them); format: cell-based; settings: in at least one of the bromodomain cell assays described in Example 40
Text: as §1, §2
In MV-4-11 cells, BRD2, BRD3 and BRD4 bind to the promoter region of MYC and regulate its transcription (Dawson M A et al. 2011). The literature bromodomain inhibitor iBET 151 could disrupt BRD4 recruitment to the MYC promoter and subsequently downregulate c-myc transcription (Dawson M A et al. 2011). Myc protein is a transcription factor that heterodimerizes with an obligatory partner Max and regulates the transcription of genes important for cell proliferation, differentiation, and apoptosis. This Myc reporter assay is used to monitor the inhibitory effect of compound of formula (I) on Myc dependent gene expression. Effective compounds could have potential therapeutic effects in Myc-driven tumors.
The MV-4-11 Myc reporter cell line is established by infecting MV-4-11 with VSV-g pseudotyped lentivirus expressing the firefly luciferase gene under the control of a minimal (m) CMV promoter and tandem repeats of the E-box transcriptional response element (TRE) (Qiagen IL, USA) and selecting cells in […] Puromycin.
The MV-4-11 Myc reporter cell line is maintained in Iscove's Modified Dulbecco's Medium containing 10% FBS, 1% PenStep and 2.5 μg/ml Puromycin. Cells are incubated at 37° C. in a humidified atmosphere with 5% CO2. 25,000 cells are seeded in 96-well plate in 50 μL of culture media. After several hours, growth media containing 2× compounds are added to the wells. Compound at a maximal concentration of 5 mM is serially diluted 1:3 for a total of 8 point titration. A 1 μl aliquot of each dilution point is added to 249 μl growth media and 50 μl is added to each well containing cells, providing 10 μM compound at the maximum concentration point. DMSO treated cells serve as a high control and 10 μM JQ1 treated cells serve as a low control. Cells are incubated for a further 24 hours and 25 μL of CellTiter-Fluo Reagent (Promega Ga., USA) is added to each well. Plates are shaken for approximately 2 minutes and incubated at 37° C. for 0.5 hour. […]

| Structure (SMILES) | IC50 (MV-4-11) [µM] | IC50 (bromodomain) [µM] |
| --- | --- | --- |
| Cc1noc(C)c1-c1cnc2[nH]cc(C3(O)CCC(F)(F)CC3)c2c1 [P-0024, 1-[5-(3,5-dimethylisoxazol-4-yl)-1H-pyrrolo[2,3-b]pyridin-3-yl]-4,4-difluoro-cyclohexanol] | 1 to 10 | < 10 |
| COc1ncc(C(O)c2c[nH]c3ncc(-c4c(C)noc4C)cc23)cc1F (stereo not shown) [P-0025, [5-(3,5-dimethylisoxazol-4-yl)-1H-pyrrolo[2,3-b]pyridin-3-yl]-(5-fluoro-6-methoxy-3-pyridyl)methanol] | 1 to 10 | < 10 |
| Cc1noc(C)c1-c1cnc2[nH]cc(Cc3ccccc3Cl)c2c1 [P-0026, 4-[3-[(2-chlorophenyl)methyl]-1H-pyrrolo[2,3-b]pyridin-5-yl]-3,5-dimethyl-isoxazole] | 1 to 10 | < 10 |
| Cc1noc(C)c1-c1cnc2[nH]cc(Cc3c(F)cccc3Cl)c2c1 [P-0027, 4-[3-[(2-chloro-6-fluoro-phenyl)methyl]-1H-pyrrolo [2,3-b]pyridin-5-yl]-3,5-dimethyl-isoxazole] | 1 to 10 | < 10 |
| Cc1noc(C)c1-c1cnc2[nH]cc(C3=CCC(F)(F)CC3)c2c1 [P-0029, 4-[3-(4,4-difluorocyclohexen-1-yl)-1H-pyrrolo[2,3-b]pyridin-5-yl]-3,5-dimethyl-isoxazole] | 1 to 10 | < 10 |
| Cc1noc(C)c1-c1cnc2[nH]cc(C(=O)C3CCC(F)(F)CC3)c2c1 [P-0031, (4,4-difluorocyclohexyl)-[5-(3,5-dimethylisoxazol-4-yl)-1H-pyrrolo[2,3-b]pyridin-3-yl]methanone] | 1 to 10 | < 10 |
| CCCCS(=O)(=O)n1ccc2ncc(-c3c(C)noc3C)cc21 [P-0036, 4-(1-butylsulfonylpyrrolo [3,2-b]pyridin-6-yl)-3,5-dimethyl-isoxazole] | 1 to 10 | < 10 |
| Cc1noc(C)c1-c1cnc2[nH]cc(C(O)c3cccc(OC(F)(F)F)c3)c2c1 (stereo not shown) [P-0039, [5-(3,5-dimethylisoxazol-4-yl)-1H-pyrrolo[2,3-b]pyridin-3-yl]-[3-(trifluoromethoxy)phenyl] methanol] | 1 to 10 | < 10 |
| Cc1noc(C)c1-c1cnc2[nH]cc(C(O)c3cccc4c3OC(F)(F)O4)c2c1 (stereo not shown) [P-0041, (2,2-difluoro-1,3-benzodioxol-4-yl)-[5-(3,5-dimethylisoxazol-4-yl)-1H-pyrrolo[2,3-b]pyridin-3-yl] methanol] | 1 to 10 | < 10 |
| CCc1[nH]c2ncc(-c3c(C)noc3C)cc2c1C(O)c1cccc(OC(F)(F)F)c1 (stereo not shown) [P-0043, [5-(3,5-dimethylisoxazol-4-yl)-2-ethyl-1H-pyrrolo[2,3-b]pyridin-3-yl]-[3-(trifluoromethoxy)phenyl]methanol] | 1 to 10 | < 10 |
| CCc1[nH]c2ncc(-c3c(C)noc3C)cc2c1C(OC)C1CCC(F)(F)CC1 (stereo not shown) [P-0045, 4-[3-[(4,4-difluorocyclohexyl)-methoxy-methyl]-2-ethyl-1H-pyrrolo[2,3-b]pyridin-5-yl]-3,5-dimethyl-isoxazole] | ≤ 1 | < 10 |
| Cc1noc(C)c1-c1cnc2[nH]cc(Cc3ccccc3OC(F)F)c2c1 [P-0047, 4-[3-[[2-(difluoromethoxy)phenyl]methyl]-1H-pyrrolo[2,3-b]pyridin-5-yl]-3,5-dimethyl-isoxazole] | 1 to 10 | < 10 |
| Cc1noc(C)c1-c1cnc2[nH]cc(Cc3cccc4c3OC(F)(F)O4)c2c1 [P-0048, 4-[3-[(2,2-difluoro-1,3-benzodioxol-4-yl)methyl]-1H-pyrrolo[2,3-b]pyridin-5-yl]-3,5-dimethyl-isoxazole] | 1 to 10 | < 10 |
| CCc1[nH]c2ncc(-c3c(C)noc3C)cc2c1Cc1ccccc1Cl [P-0049, 4-[3-[(2-chlorophenyl)methyl]-2-ethyl-1H-pyrrolo[2,3-b]pyridin-5-yl]-3,5-dimethyl-isoxazole] | 1 to 10 | < 10 |
| Cc1noc(C)c1-c1cnc2ccn(S(=O)(=O)c3ccccc3F)c2c1 [P-0060, 4-[1-(2-fluorophenyl)sulfonylpyrrolo[3,2-b]pyridin-6-yl]-3,5-dimethyl-isoxazole] | 1 to 10 | < 10 |
| Cc1ccc(S(=O)(=O)n2ccc3ncc(-c4c(C)noc4C)cc32)s1 [P-0062, 3,5-dimethyl-4-[1-[(5-methyl-2-thienyl)sulfonyl]pyrrolo[3,2-b]pyridin-6-yl]isoxazole] | 1 to 10 | < 10 |
| Cc1noc(C)c1-c1cnc2[nH]cc(C(C)(C)c3ccc(F)cc3)c2c1 [P-0063, 4-[3-[1-(4-fluorophenyl)-1-methyl-ethyl]-1H-pyrrolo[2,3-b]pyridin-5-yl]-3,5-dimethyl-isoxazole] | ≤ 1 | < 10 |

Now from value to compound:

| IC50 (MV-4-11) [µM] | IC50 (bromodomain) [µM] | Structure (SMILES) |
| --- | --- | --- |
| ≤ 1 | < 10 | COc1ncc(F)cc1C(O)c1c[nH]c2ncc(-c3c(C)noc3C)cc12 (stereo not shown) [P-0022, [5-(3,5-dimethylisoxazol-4-yl)-1H-pyrrolo[2,3-b]pyridin-3-yl]-(5-fluoro-2-methoxy-3-pyridyl)methanol] |
| ≤ 1 | < 10 | COc1ncc(F)cc1Cc1c[nH]c2ncc(-c3c(C)noc3C)cc12 [P-0028, 4-[3-[(5-fluoro-2-methoxy-3-pyridyl)methyl]-1H-pyrrolo[2,3-b]pyridin-5-yl]-3,5-dimethyl-isoxazole] |
| ≤ 1 | < 10 | Cc1noc(C)c1-c1cnc2[nH]cc(C(O)C3CCC(F)(F)CC3)c2c1 (stereo not shown) [P-0030, (4,4-difluorocyclohexyl)-[5-(3,5-dimethylisoxazol-4-yl)-1H-pyrrolo[2,3-b]pyridin-3-yl] methanol] |
| ≤ 1 | < 10 | Cc1noc(C)c1-c1cnc2[nH]cc(CC3CCC(F)(F)CC3)c2c1 [P-0034, 4-[3-[(4,4-difluorocyclohexyl)methyl]-1H-pyrrolo[2,3-b]pyridin-5-yl]-3,5-dimethyl-isoxazole] |
| ≤ 1 | < 10 | Cc1noc(C)c1-c1cnc2ccn(S(=O)(=O)C3CCCC3)c2c1 [P-0037, 4-(1-cyclopentylsulfonylpyrrolo [3,2-b]pyridin-6-yl)-3,5-dimethyl-isoxazole] |
| ≤ 1 | < 10 | Cc1noc(C)c1-c1cnc2ccn(S(=O)(=O)c3ccccc3)c2c1 [P-0038, 4-[1-(benzenesulfonyl)pyrrolo [3,2-b]pyridin-6-yl]-3,5-dimethyl-isoxazole] |
| ≤ 1 | < 10 | Cc1noc(C)c1-c1cnc2[nH]cc(C(O)c3ccccc3OC(F)F)c2c1 (stereo not shown) [P-0040, [2-(difluoromethoxy)phenyl]-[5-(3,5-dimethylisoxazol-4-yl)-1H-pyrrolo[2,3-b]pyridin-3-yl] methanol] |
| ≤ 1 | < 10 | CCc1[nH]c2ncc(-c3c(C)noc3C)cc2c1C(O)c1ccccc1Cl (stereo not shown) [P-0042, (2-chlorophenyl)-[5-(3,5-dimethylisoxazol-4-yl)-2-ethyl-1H-pyrrolo[2,3-b]pyridin-3-yl]methanol] |
| ≤ 1 | < 10 | CCc1[nH]c2ncc(-c3c(C)noc3C)cc2c1C(O)C1CCC(F)(F)CC1 (stereo not shown) [P-0044, (4,4-difluorocyclohexyl)-[5-(3,5-dimethylisoxazol-4-yl)-2-ethyl-1H-pyrrolo[2,3-b]pyridin-3-yl]methanol] |
